“And” between values parts separate entries of the source, which are not always exact repeats. Equal values may be shown once. Marks after values point to notes of the source that are not given here.
What was measured:
[1] = system: IFNγ-induced NO production in RAW 264.7 cells; assay: Nitric oxide suppression assay (IFNγ-induced NO production, Griess nitrite readout); assay type: cell-based, mouse; conditions: for IC50: Mus musculus, RAW264.7, RAW 264.7 cells, 2 h pretreatment, 20 ng/mL interferon gamma 24 h, average of trials per footnote, read-out: NO IC50
CYP3A4 = biological target: T1, CYP3A4 (Homo sapiens, UniProt P08684); assay: CYP3A4 (midazolam) inhibition in human liver microsomes; assay type: in vitro ADME; conditions: probe midazolam; human liver microsomes 0.1 mg/mL, midazolam substrate, 1 μM test compound, 37° C. 10 min
T1 construct: containing 0.1 mg/mL human liver microsomes; from tissue; host or cells: human liver microsomes
T1 sequence (P08684 whole entry): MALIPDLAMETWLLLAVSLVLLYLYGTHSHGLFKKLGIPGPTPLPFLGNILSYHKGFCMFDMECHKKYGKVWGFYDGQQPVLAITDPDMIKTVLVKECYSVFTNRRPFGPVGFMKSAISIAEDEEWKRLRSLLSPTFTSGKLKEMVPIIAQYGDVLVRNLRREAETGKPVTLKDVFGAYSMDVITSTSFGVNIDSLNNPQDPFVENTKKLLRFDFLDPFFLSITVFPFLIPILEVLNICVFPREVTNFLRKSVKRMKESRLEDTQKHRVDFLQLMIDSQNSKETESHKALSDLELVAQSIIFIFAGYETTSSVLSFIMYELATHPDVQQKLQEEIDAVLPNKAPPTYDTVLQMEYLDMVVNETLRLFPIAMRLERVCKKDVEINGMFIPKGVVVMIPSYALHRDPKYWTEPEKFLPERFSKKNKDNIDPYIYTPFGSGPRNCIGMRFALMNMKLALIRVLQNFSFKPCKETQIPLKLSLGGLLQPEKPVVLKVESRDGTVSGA
Protocol: Methods. Several compounds were evaluated for CYP3A4 (midazolam) inhibition in human liver microsomes at 1 μM. CYP3A4 inhibition was tested using an in vitro assay as generally described in Dierks et al. (Drug Metabolism Deposition, 29:23-29, 2001, which is incorporated by reference herein). Each sample, containing 0.1 mg/mL human liver microsomes, […] as substrate, and 1 μM of test compound, was incubated at 37° C. for 10 min. Following incubation, the metabolite 1-hydroxymidazolam was measured using HPLC-MS/MS. Peak areas corresponding to the metabolite of the substrate were recorded. The percent of control activity was then calculated by comparing the peak area obtained in the presence of the test compound to that obtained in the absence of the test compound. Subsequently, the percent inhibition was calculated by subtracting the percent control activity from 100 for each compound.

[2] = system: AREc32 reporter cell line (luciferase reporter under eight copies of the rat GSTA2 ARE sequence); assay: AREc32 luciferase reporter activation; assay type: cell-based, human; conditions: for EC (2-fold): Homo sapiens, Arec32, concentration that increases the luminescence signal 2-fold above vehicle, 19 h treatment, read-out: AREc32 EC2X (Mean ± SD); for AREc32 Relative to CC in Same Experiment (Mean ± SD): average of ratios from three replicate experiments

Row | Compound | NO IC50 Rel. to RTA 402 [1] | times more active (NO IC50) than 63229 relative to RTA 402 [1] | times more active (NO IC50) than CC4 relative to RTA 402 [1] | IC50 [1] | inhibition at 10 min, 1 µM (CYP3A4) | AREc32 EC2X Relative to RTA 402 (Mean ± SD) [2] | EC (2-fold) [2] | AREc32 Relative to CC in Same Experiment (Mean ± SD) ([2]; comparison compound CC4) | times more active (NO IC50) than CC2 relative to RTA 402 [1] | AREc32 Relative to CC in Same Experiment (Mean ± SD) ([2]; comparison compound CC2)
1 | CC1(C)CC[C@]2(n3cnnn3)CC[C@]3(C)[C@H](C(=O)C=C4[C@@]5(C)C=C(C#N)C(=O)C(C)(C)[C@@H]5CC[C@]43C)[C@@H]2C1 [Compound T36] | 0.77 fold and 0.77 ± 0.16^e fold | greater than 98.5 times | roughly 3.1 times | 1.96 nM | 52.8% | 0.5 ± 0.13^f fold | 0.0056 ± 0.00059 µM | 0.191 ± 0.009 |  | 
2 | CC1(C)CC[C@]2(n3ccnc3)CC[C@]3(C)[C@H](C(=O)C=C4[C@@]5(C)C=C(C#N)C(=O)C(C)(C)[C@@H]5CC[C@]43C)[C@@H]2C1 [Compound T37] | 1.37 ± 0.26^e fold |  |  | 3.22 ± 1.52 nM | 86.5% | 2.1 ± 0.50^f fold | 0.0243 ± 0.0027 µM | 0.878 ± 0.094 |  | 
3 | CNC(=O)c1cn([C@]23CCC(C)(C)C[C@H]2[C@H]2C(=O)C=C4[C@@]5(C)C=C(C#N)C(=O)C(C)(C)[C@@H]5CC[C@@]4(C)[C@]2(C)CC3)nn1 [Compound T41] | 1.19 ± 0.22^d fold |  |  | 4.96 ± 1.58 nM | 17.1% | 0.8 ± 0.16^f fold | 0.0094 ± 0.00135 µM | 0.320 ± 0.037 |  | 
4 | CC1(C)CC[C@]2(n3cc(CF)nn3)CC[C@]3(C)[C@H](C(=O)C=C4[C@@]5(C)C=C(C#N)C(=O)C(C)(C)[C@@H]5CC[C@]43C)[C@@H]2C1 [Compound T43] | 0.66 fold and 0.66 ± 0.09^d fold |  | roughly 3.7 times | 2.68 nM | 17% | 0.7 ± 0.15^f fold | 0.0085 ± 0.00055 µM | 0.299 ± 0.015 |  | 
5 | CC1(C)CC[C@]2(n3cc(C(F)F)nn3)CC[C@]3(C)[C@H](C(=O)C=C4[C@@]5(C)C=C(C#N)C(=O)C(C)(C)[C@@H]5CC[C@]43C)[C@@H]2C1 [Compound T44] | 1.07 ± 0.11^d fold |  |  | 4.39 ± 0.73 nM | 29.1% | 0.9 ± 0.15^f fold | 0.0106 ± 0.00083 µM | 0.387 ± 0.037 |  | 
6 | Cc1cn(C[C@]23CCC(C)(C)C[C@H]2[C@H]2C(=O)C=C4[C@@]5(C)C=C(C#N)C(=O)C(C)(C)[C@@H]5CC[C@@]4(C)[C@]2(C)CC3)nn1 [Compound T48] | 1.19 fold and 1.19 ± 0.18^e fold |  |  | 2.5 nM | 29.8% | 1.3 ± 0.21^g fold | 0.0129 ± 0.00143 µM |  | roughly 1.3 times | 0.802 ± 0.050
